According to patent US8258118B2, “4-pyridinone compounds and their use for cancer” (Bristol-Myers Squibb Company, priority 2008, dated 2012):

Experiments:
[1] = test system: GTL-16 gastric carcinoma xenografts; assay: In vivo efficacy, GTL-16 human gastric tumor xenograft model; conditions: for overt toxicity: administered once daily for 14 days, any of the dose levels
Description: N-(4-(2-Amino-3-chloropyridin-4-yloxy)-3-fluorophenyl)-5-(4-fluorophenyl)-4-oxo-1,4-dihydropyridine-3-carboxamide (Example 1) and (3-(4-(2-amino-3-chloropyridin-4-yloxy)-3-fluorophenylcarbamoyl)-5-(4-fluorophenyl)-4-oxopyridin-1(4H)-yl)methyl dihydrogen phosphate (Example 2) were evaluated for in vivo efficacy against the GTL-16 human gastric tumor xenograft model. Example 2 is a prodrug of Example 1.

VEGFR-2 = VEGFR-2 (Homo sapiens, UniProt P35968); assay: VEGFR-2 kinase assay; assay type: biochemical
Description: Incubation mixtures employed for the VEGFR-2 assay contain the synthetic substrate poly glu/tyr, (4:1), ATP, ATP-γ-^33P and buffer containing Mn^+2, DTT, BSA, and Tris buffer. The reaction is initiated by addition of enzyme and after 60 minutes at room temperature is terminated by the addition of 30% TCA to a final concentration of 15% TCA. Inhibitors are brought to 10 mM in 100% DMSO. Assays are prepared in a 96 well format in quadruplicate. Compounds are diluted 1:500 in 100% DMSO and then 1:10 in water for a final DMSO concentration of 10%. Aliquots (10 μL) are added to rows B-H in a 96 well format of 10% DMSO. The compound (20 μl) is added to row A at a concentration 5 fold higher than running conditions. Aliquots (10 μL) are transferred to each row followed by six serial dilutions with mixing, and at row F 10 μL are discarded. Row G is a control with no compound and row H is no compound and no enzyme control. Enzyme and substrate are delivered using a Tomtec Quadra station.
Plates are covered with sticky plate tops, incubated at 27° C. for 60 minutes, and then acid precipitated with TCA for 20 minutes on ice. […] Activity is determined by quantitating the incorporated radioactivity using a Packard TopCount Microplate Scintillation Counter following the addition of Microscint-20 cocktail into each dried well of the UniFilter microplates.

GTL-16 cells = assay: GTL-16 gastric carcinoma proliferation assay (MTS); assay type: cell-based; conditions: Homo sapiens, 72 h, 0.5% fetal calf serum
Description: Inhibition of GTL-16 cell growth was assessed by a MTS assay using a CELLTITER 96® Aqueous Non-Radioactive Proliferation Assay kit from Promega. The kit is composed of solutions of a novel tetrazolium compound (3-(4,5-dimethylthiazol-2-yl)-5-(3-carboxymethoxyphenyl)-2-(4-sulfophenyl)-2H-tetrazolium, inner salt; MTS) and an electron coupling reagent (phenazine methosulfate, PMS). In this colormetric assay, the conversion of MTS into aqueous, soluble formazan is accomplished by dehydrogenase enzymes found in metabolically active cells. The quantity of formazan product as measured by its absorbance at 490 nm is directly proportional to the number of living cells in culture.
GTL-16 cells were inoculated into 96 well microtiter plates in 0.5% fetal calf serum and incubated at 37° C., 5% CO2, 95% air and 100% relative humidity for 24 h prior to addition of a compound. At the time of drug treatment, one plate of the cell line was processed using the above kit to represent a measurement of the cell population at the time of drug addition. Following drug treatment, the plates were incubated for an additional 72 h before processing, and measuring cell populations. Each compound was tested at 8 different concentrations in triplicate, as was the untreated control sample. Growth inhibition of 50% (IC50) is calculated by analysis of the data in Excel that uses a 4 parameter logistic equation with data fitted using the Levenburg Marquardt algorithm

GST-Met kinase = biological target: T1, GST-Met kinase (Homo sapiens, UniProt P08581); assay: Met kinase assay; assay type: biochemical
T1 construct: made in house
Description: Incubation mixtures employed for the Met kinase assay contain a baculovirus expressed GST-Met kinase, the synthetic substrate polyGlu:Tyr, (4:1), ATP, ATP-γ-^33P and buffer containing Mn^+2, DTT, BSA, and Tris. Reactions were incubated for 60 minutes at 30° C. and stopped by the addition of cold trichloroacetic acid (TCA) to a final concentration 8%. TCA precipitates were collected onto GF/C UniFilter plates (Packard Instrument Co., Meriden, Conn.) using a FILTERMATE® universal harvester (Packard Instrument Co., Meriden, Conn.) and the filters are quantitated using a TopCount 96/384-well liquid scintillation counter (Packard Instrument Co., Meriden, Conn.). Dose response curves were generated to determine the concentration required to inhibit 50% of kinase activity (IC50). Compounds were dissolved at 10 mM in dimethyl sulfoxide (DMSO) and evaluated at ten concentrations, each in duplicate. The final concentration of DMSO in the assay is 1.7%. IC50 values were derived by non-linear regression.

[2] = test system: U87 glioblastoma xenografts; assay: In vivo efficacy, U87 glioblastoma xenograft model; conditions: 25 mg/kg, dosed orally once daily for 14 days
Description: Example 1 was also tested in the U87 glioblastoma model, a Met driven tumor based on an HGF autocrine mechanism of Met activation.

T1 sequence (P08581 25-1390): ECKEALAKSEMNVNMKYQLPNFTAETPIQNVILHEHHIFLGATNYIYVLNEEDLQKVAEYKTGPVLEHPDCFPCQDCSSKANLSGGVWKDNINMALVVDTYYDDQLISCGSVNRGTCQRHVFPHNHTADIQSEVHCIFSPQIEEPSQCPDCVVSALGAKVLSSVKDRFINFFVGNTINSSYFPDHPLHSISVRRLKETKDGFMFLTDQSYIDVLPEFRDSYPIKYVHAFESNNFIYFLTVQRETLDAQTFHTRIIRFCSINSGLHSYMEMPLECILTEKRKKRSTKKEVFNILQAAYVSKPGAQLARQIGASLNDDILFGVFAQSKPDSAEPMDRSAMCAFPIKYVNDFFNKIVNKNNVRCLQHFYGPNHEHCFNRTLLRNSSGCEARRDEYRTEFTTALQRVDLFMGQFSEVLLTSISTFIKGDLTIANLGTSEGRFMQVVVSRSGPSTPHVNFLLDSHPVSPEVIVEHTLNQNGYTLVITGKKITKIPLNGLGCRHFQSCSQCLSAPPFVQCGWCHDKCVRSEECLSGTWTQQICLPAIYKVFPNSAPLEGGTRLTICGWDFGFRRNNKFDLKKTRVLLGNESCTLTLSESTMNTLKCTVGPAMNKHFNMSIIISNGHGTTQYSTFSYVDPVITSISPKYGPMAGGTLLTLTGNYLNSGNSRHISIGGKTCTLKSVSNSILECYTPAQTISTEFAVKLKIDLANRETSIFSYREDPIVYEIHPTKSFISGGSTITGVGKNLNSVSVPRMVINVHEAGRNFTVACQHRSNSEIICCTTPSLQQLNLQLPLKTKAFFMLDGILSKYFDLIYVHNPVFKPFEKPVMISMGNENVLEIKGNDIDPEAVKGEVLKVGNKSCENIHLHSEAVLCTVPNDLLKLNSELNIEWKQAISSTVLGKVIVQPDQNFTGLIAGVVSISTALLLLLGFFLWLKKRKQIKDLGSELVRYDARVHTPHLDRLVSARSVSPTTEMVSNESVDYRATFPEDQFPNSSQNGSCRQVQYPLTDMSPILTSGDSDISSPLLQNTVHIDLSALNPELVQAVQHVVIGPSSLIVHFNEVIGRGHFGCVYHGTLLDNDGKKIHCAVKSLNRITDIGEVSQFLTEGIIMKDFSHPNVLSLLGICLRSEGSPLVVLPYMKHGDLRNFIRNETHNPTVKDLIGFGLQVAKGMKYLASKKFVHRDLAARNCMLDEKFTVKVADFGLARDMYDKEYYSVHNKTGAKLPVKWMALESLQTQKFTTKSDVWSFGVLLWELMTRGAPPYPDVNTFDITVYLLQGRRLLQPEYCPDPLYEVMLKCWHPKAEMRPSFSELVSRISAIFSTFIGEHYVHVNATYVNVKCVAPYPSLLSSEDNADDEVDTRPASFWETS
Sequence of VEGFR-2 (P35968 20-1356): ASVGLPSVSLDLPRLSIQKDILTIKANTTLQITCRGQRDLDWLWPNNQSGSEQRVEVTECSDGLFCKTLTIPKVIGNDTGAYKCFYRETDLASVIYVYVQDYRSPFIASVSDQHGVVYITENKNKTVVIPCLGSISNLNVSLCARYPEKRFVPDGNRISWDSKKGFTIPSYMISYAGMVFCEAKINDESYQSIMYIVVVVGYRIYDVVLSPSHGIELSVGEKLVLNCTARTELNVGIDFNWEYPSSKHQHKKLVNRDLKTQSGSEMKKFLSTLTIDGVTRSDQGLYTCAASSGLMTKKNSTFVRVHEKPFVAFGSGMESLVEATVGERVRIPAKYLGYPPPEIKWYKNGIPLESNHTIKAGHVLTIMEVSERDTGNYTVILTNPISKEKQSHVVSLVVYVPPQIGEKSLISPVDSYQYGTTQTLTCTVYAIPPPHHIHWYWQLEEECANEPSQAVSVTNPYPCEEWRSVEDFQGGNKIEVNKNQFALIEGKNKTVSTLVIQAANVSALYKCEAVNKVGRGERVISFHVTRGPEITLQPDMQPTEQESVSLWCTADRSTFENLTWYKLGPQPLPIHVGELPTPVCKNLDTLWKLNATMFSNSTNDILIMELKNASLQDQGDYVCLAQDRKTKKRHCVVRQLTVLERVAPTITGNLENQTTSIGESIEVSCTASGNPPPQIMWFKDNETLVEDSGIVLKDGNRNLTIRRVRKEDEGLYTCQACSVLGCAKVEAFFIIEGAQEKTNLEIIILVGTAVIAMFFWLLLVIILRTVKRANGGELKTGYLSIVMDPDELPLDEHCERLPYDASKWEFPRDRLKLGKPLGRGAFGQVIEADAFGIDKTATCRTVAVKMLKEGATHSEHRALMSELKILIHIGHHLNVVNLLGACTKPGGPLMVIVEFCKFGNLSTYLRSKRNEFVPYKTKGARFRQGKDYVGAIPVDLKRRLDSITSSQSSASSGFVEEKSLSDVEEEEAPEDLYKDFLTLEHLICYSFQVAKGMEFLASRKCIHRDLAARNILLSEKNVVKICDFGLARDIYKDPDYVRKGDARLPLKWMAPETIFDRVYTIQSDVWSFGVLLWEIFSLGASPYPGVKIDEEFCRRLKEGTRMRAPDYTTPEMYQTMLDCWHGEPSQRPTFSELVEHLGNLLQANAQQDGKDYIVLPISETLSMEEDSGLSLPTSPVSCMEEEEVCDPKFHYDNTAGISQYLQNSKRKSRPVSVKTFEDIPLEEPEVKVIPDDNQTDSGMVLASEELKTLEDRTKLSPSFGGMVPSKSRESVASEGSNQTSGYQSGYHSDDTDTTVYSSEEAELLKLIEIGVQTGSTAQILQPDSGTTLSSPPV

IC50 (GTL-16 cells) [nM] | IC50 (GST-Met kinase) [nM] | SMILES | antitumor activity (tumor stasis) ([1]; 31.2 mg/kg of Example 2 (equimolar to 25 mg/kg Example 1), once daily for 14 days) | overt toxicity [1] | IC50 (VEGFR-2) [nM] | antitumor activity (tumor stasis) ([1]; 25 mg/kg of Example 1, once daily for 14 days) | antitumor activity (tumor stasis) [2]
 |  | Nc1nccc(Oc2ccc(NC(=O)c3cn(COP(=O)(O)O)cc(-c4ccc(F)cc4)c3=O)cc2F)c1Cl [Example 2, (3-(4-(2-Amino-3-chloropyridin-4-yloxy)-3-fluorophenylcarbamoyl)-5-(4-fluorophenyl)-4-oxopyridin-1(4H)-yl)methyl dihydrogen phosphate] | complete tumor stasis | No overt toxicity |  |  | 
170 | 4.8 | Nc1cc(Oc2ccc(NC(=O)c3cccn(-c4ccc(F)cc4)c3=O)cc2F)ccn1 [Compound B, N-(4-(2-Aminopyridin-4-yloxy)-3-fluorophenyl)-1-(4-fluorophenyl)-2-oxo-1,2-dihydropyridine-3-carboxamide] |  |  | 40 |  | 
5400 | 160 | Nc1cc(Oc2ccc(NC(=O)c3c[nH]cc(Cc4ccccc4)c3=O)cc2F)ccn1 [Compound A, N-(4-(2-Aminopyridin-4-yloxy)-3-fluorophenyl)-5-benzyl-4-oxo-1,4-dihydropyridine-3-carboxamide] |  |  |  |  | 

SMILES | IC50 (GTL-16 cells) [nM] | IC50 (GST-Met kinase) [nM] | antitumor activity (tumor stasis) ([1]; 31.2 mg/kg of Example 2 (equimolar to 25 mg/kg Example 1), once daily for 14 days) | overt toxicity [1] | IC50 (VEGFR-2) [nM] | antitumor activity (tumor stasis) ([1]; 25 mg/kg of Example 1, once daily for 14 days) | antitumor activity (tumor stasis) [2]
Nc1nccc(Oc2ccc(NC(=O)c3c[nH]cc(-c4ccc(F)cc4)c3=O)cc2F)c1Cl [Example 1, N-(4-(2-Amino-3-chloropyridin-4-yloxy)-3-fluorophenyl)-5-(4-fluorophenyl)-4-oxo-1,4-dihydropyridine-3-carboxamide] | 39 | 1.7 |  | No overt toxicity | 15 | complete tumor stasis | complete tumor stasis
